Test results from patent US8846733B2, “Oxazolyl-methylether derivatives as ALX receptor agonists” (Actelion Pharmaceuticals Ltd., priority 2010, dated 2014).

Target: T1, recombinant human ALX receptor (Homo sapiens, UniProt P25090)
T1 construct: expressed in transfected cells; host or cells: HEK293 (HEK293-hALXR-Gα16)
T1 sequence (P25090 1-351): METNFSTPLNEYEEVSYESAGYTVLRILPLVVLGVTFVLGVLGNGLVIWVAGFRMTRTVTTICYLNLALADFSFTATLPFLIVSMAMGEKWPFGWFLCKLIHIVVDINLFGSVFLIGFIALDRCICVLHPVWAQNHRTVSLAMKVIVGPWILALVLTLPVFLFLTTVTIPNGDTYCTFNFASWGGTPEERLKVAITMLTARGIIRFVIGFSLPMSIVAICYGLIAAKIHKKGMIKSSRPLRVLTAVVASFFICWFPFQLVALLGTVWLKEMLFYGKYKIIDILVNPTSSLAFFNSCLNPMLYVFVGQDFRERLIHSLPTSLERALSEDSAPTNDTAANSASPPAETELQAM
Assay: Intracellular calcium measurements (FLIPR), ALX receptor agonistic activity
Assay type: cell-based
Details: HEK293-hALXR-Gα16 cells
Experimental: The ALX receptor agonistic activity of the compounds of formula (I) is determined in accordance with the following experimental method.
Intracellular Calcium Measurements:
Cells expressing recombinant human ALX receptor and the G-protein Gα16 (HEK293-hALXR-Gα16) were grown to 80% confluency in Growing Medium (GM). Cells were detached from culture dishes with a cell dissociation buffer (Invitrogen, 13151-014), and collected by centrifugation at 1,000 rpm at rt for 5 min in Assay Buffer (AB) (equal parts of Hank's BSS (Gibco, 14065-049) and DMEM without Phenol Red (Gibco, 11880-028)). After 60 min incubation at 37° C. under 5% CO2 in AB supplemented with 1 μM Fluo-4 (AM) (Invitrogen, F14202) and 20 mM HEPES (Gibco, 15630-056), the cells were washed and resuspended in AB. They were then seeded onto 384-well FLIPR assay plates (Greiner, 781091) at 50,000 cells in 70 μl per well and sedimented by centrifugation at 1,000 rpm for 1 min. Stock solutions of test compounds were made up at a concentration of 10 mM in DMSO, and serially diluted in AB to concentrations required for activation dose response curves. WKYMVm (Phoenix Peptides) was used as a reference agonist. A FLIPR Tetra instrument (Molecular Devices) was operated according to the manufacturer's standard instructions, adding 4 μl of test compound dissolved at 10 mM in DMSO and diluted prior to the experiment in assay buffer to obtain the desired final concentration. Changes in fluorescence were monitored before and after the addition of test compounds at lex=488 nm and lem=540 nm. Emission peak values above base level after compounds addition were exported after base line subtraction. Values were normalized to high-level control (WKYMVm compound, 10 nM final concentration) after subtraction of the base line value (AB addition).

[1] = Table 2, compound failing within formula I of WO 2009/077990

Row | SMILES | EC50 (Table 1, exemplified compounds) | EC50 (Table 2, reference compounds) | also measured
1 | CC(=O)c1nc(Cn2ncc(NC(=O)c3ncoc3-c3ccccc3)n2)co1 |  |  | EC50 [1]: 1.5 nM
2 | CC(=O)c1nc(Cn2ncc(NC(=O)c3nc(C)oc3-c3cccc(C)c3)n2)co1 |  |  | EC50 [1]: 0.9 nM
3 | CCOCc1coc(Cn2ncc(NC(=O)c3ncoc3-c3ccccc3)n2)n1 [Example 15, N-(2-((4-(ethoxymethyl)oxazol-2-yl)methyl)-2H-1,2,3-triazol-4-yl)-5-phenyloxazole-4-carboxamide] | 8.6 nM |  | 
4 | CC(=O)c1csc(Cn2ncc(NC(=O)c3ncoc3-c3ccccc3)n2)n1 [example 39] |  |  | EC50 [1]: 8.1 nM
5 | CC(=O)c1nc(Cn2ncc(NC(=O)c3ncoc3-c3ccccc3)n2)cs1 [example 45] |  |  | EC50 [1]: 93 nM
6 | CC(=O)c1ncc(Cn2ncc(NC(=O)c3ncoc3-c3ccccc3)n2)s1 [example 67] |  |  | EC50 [1]: 73 nM
7 | CC(=O)c1cnc(Cn2ncc(NC(=O)c3ncoc3-c3ccccc3)n2)s1 [example 73] |  |  | EC50 [1]: 88 nM
8 | COCc1ccc(Cn2ncc(NC(=O)c3ncoc3-c3ccccc3)n2)o1 [reference compound 3, N-(2-((5-(methoxymethyl)furan-2-yl)methyl)-2H-1,2,3-triazol-4-yl)-5-phenyloxazole-4-carboxamide] |  | 498 nM | 
9 | COCc1ccc(Cn2ncc(NC(=O)c3ncoc3-c3ccccc3)n2)s1 [reference compound 4, N-(2-((5-(methoxymethyl)thiophen-2-yl)methyl)-2H-1,2,3-triazol-4-yl)-5-phenyloxazole-4-carboxamide] |  | 2300 nM | 
10 | COCc1csc(Cn2ncc(NC(=O)c3ncoc3-c3ccccc3)n2)n1 [reference compound 5, N-(2-((4-(methoxymethyl)thiazol-2-yl)methyl)-2H-1,2,3-triazol-4-yl)-5-phenyloxazole-4-carboxamide] |  | 48 nM | 
11 | COCc1nc(Cn2ncc(NC(=O)c3ncoc3-c3ccccc3)n2)cs1 [reference compound 6, N-(2-((2-(methoxymethyl)thiazol-4-yl)methyl)-2H-1,2,3-triazol-4-yl)-5-phenyloxazole-4-carboxamide] |  | 146 nM | 
12 | COCc1ncc(Cn2ncc(NC(=O)c3ncoc3-c3ccccc3)n2)s1 [reference compound 7, N-(2-((2-(methoxymethyl)thiazol-5-yl)methyl)-2H-1,2,3-triazol-4-yl)-5-phenyloxazole-4-carboxamide] |  | 8130 nM | 
13 | COCc1cnc(Cn2ncc(NC(=O)c3ncoc3-c3ccccc3)n2)s1 [reference compound 8, N-(2-((5-(methoxymethyl)thiazol-2-yl)methyl)-2H-1,2,3-triazol-4-yl)-5-phenyloxazole-4-carboxamide] |  | 5950 nM | 
14 | COC(C)(C)c1nc(Cn2ncc(NC(=O)c3ncoc3-c3ccccc3)n2)co1 [reference compound 9, N-(2-((2-(2-methoxypropan-2-yl)oxazol-4-yl)methyl)-2H-1,2,3-triazol-4-yl)-5-phenyloxazole-4-carboxamide] |  | 685 nM | 

Continued, in another order:

Row | EC50 (Table 1, exemplified compounds) | EC50 (Table 2, reference compounds) | SMILES | also measured
15 | 6.6 nM |  | COC(C)(C)c1coc(Cn2ncc(NC(=O)c3nc(C)oc3-c3cccc(C)c3)n2)n1 [Example 1, N-(2-((4-(2-Methoxypropan-2-yl)oxazol-2-yl)methyl)-2H-1,2,3-triazol-4-yl)-2-methyl-5-(m-tolyl)oxazole-4-carboxamide] | 
16 | 4.3 nM |  | COCc1coc(Cn2ncc(NC(=O)c3nc(C)oc3-c3ccccc3)n2)n1 [Example 3, N-(2-((4-(Methoxymethyl)oxazol-2-yl)methyl)-2H-1,2,3-triazol-4-yl)-2-methyl-5-phenyloxazole-4-carboxamide] | 
17 | 2.1 nM |  | COCc1coc(Cn2ncc(NC(=O)c3nc(C)oc3-c3cccc(Cl)c3)n2)n1 [Example 4, 5-(3-Chlorophenyl)-N-(2-((4-(methoxymethyl)oxazol-2-yl)methyl)-2H-1,2,3-triazol-4-yl)-2-methyloxazole-4-carboxamide] | 
18 | 5.6 nM |  | COCc1coc(Cn2ncc(NC(=O)c3nc(C)oc3-c3cccc(C(F)(F)F)c3)n2)n1 [Example 5, N-(2-((4-(Methoxymethyl)oxazol-2-yl)methyl)-2H-1,2,3-triazol-4-yl)-2-methyl-5-(3-(trifluoromethyl)phenyl)oxazole-4-carboxamide] | 
19 | 4 nM |  | COCc1coc(Cn2ncc(NC(=O)c3ncoc3-c3cccc(Cl)c3)n2)n1 [Example 6, 5-(3-Chlorophenyl)-N-(2-((4-(methoxymethyl)oxazol-2-yl)methyl)-2H-1,2,3-triazol-4-yl)oxazole-4-carboxamide] | 
20 | 17.5 nM |  | COCc1coc(Cn2ncc(NC(=O)c3ncoc3-c3cccc(OC)c3)n2)n1 [Example 7, N-(2-((4-(Methoxymethyl)oxazol-2-yl)methyl)-2H-1,2,3-triazol-4-yl)-5-(3-methoxyphenyl)oxazole-4-carboxamide] | 
21 | 8.8 nM |  | COCc1coc(Cn2ncc(NC(=O)c3nc(C)oc3-c3cccc(OC)c3)n2)n1 [Example 8, N-(2-((4-(Methoxymethyl)oxazol-2-yl)methyl)-2H-1,2,3-triazol-4-yl)-5-(3-methoxyphenyl)-2-methyloxazole-4-carboxamide] | 
22 | 3.7 nM |  | COCc1coc(Cn2ncc(NC(=O)c3nc(C)oc3-c3cccc(F)c3)n2)n1 [Example 9, 5-(3-Fluorophenyl)-N-(2-((4-(methoxymethyl)oxazol-2-yl)methyl)-2H-1,2,3-triazol-4-yl)-2-methyloxazole-4-carboxamide] | 
23 | 4.6 nM |  | COCc1coc(Cn2ncc(NC(=O)c3ncoc3-c3cccc(C)c3)n2)n1 [Example 10, N-(2-((4-(Methoxymethyl)oxazol-2-yl)methyl)-2H-1,2,3-triazol-4-yl)-5-(m-tolyl)oxazole-4-carboxamide] | 
24 | 7.4 nM |  | COCc1coc(Cn2ncc(NC(=O)c3nc(C)oc3-c3cccc(OC(F)(F)F)c3)n2)n1 [Example 11, N-(2-((4-(Methoxymethyl)oxazol-2-yl)methyl)-2H-1,2,3-triazol-4-yl)-2-methyl-5-(3-(trifluoromethoxy)phenyl)oxazole-4-carboxamide] | 
25 | 11.6 nM |  | COCc1coc(Cn2ncc(NC(=O)c3nc(C4CC4)oc3-c3cccc(C)c3)n2)n1 [Example 12, 2-Cyclopropyl-N-(2-((4-(methoxymethyl)oxazol-2-yl)methyl)-2H-1,2,3-triazol-4-yl)-5-(m-tolyl)oxazole-4-carboxamide] | 
26 | 5 nM |  | COCc1coc(Cn2ncc(NC(=O)c3ncoc3-c3ccccc3)n2)n1 [Example 13, N-(2-((4-(Methoxymethyl)oxazol-2-yl)methyl)-2H-1,2,3-triazol-4-yl)-5-phenyloxazole-4-carboxamide] | 
27 | 6.7 nM |  | CCOCc1coc(Cn2ncc(NC(=O)c3nc(C)oc3-c3cccc(C)c3)n2)n1 [Example 14, N-(2-((4-(ethoxymethyl)oxazol-2-yl)methyl)-2H-1,2,3-triazol-4-yl)-2-methyl-5-(m-tolyl)oxazole-4-carboxamide] | 
28 |  | 4810 nM | COCc1ncc(Cn2ncc(NC(=O)c3nc(C)oc3-c3cccc(C)c3)n2)s1 [reference compound 1, N-(2-((2-(Methoxymethyl)thiazol-5-yl)methyl)-2H-1,2,3-triazol-4-yl)-2-methyl-5-(m-tolyl)oxazole-4-carboxamide] | 
29 |  | 2540 nM | COCc1cnc(Cn2ncc(NC(=O)c3nc(C)oc3-c3cccc(C)c3)n2)s1 [reference compound 2, N-(2-((5-(Methoxymethyl)thiazol-2-yl)methyl)-2H-1,2,3-triazol-4-yl)-2-methyl-5-(m-tolyl)oxazole-4-carboxamide] | 
